Experimental data as given in ChEMBL document CHEMBL1909046, “DrugMatrix in vitro pharmacology data”.

How the values were obtained:
[1] = DRUGMATRIX: Imidazoline I2, Central radioligand binding (ligand: [3H] Idazoxan); type: cell membranes, Rattus norvegicus, Wistar, Cerebral cortex, Membrane; settings: Not Active = under 50% inhibition at 10 µM
D(4) dopamine receptor = molecular target: T1, D(4) dopamine receptor (Homo sapiens, UniProt P21917); experiment: DRUGMATRIX: Dopamine D4.2 radioligand binding (ligand: [3H] Spiperone); type: cell membranes, CHO-K1, Membrane; settings: Not Active = under 50% inhibition at 10 µM
T1 sequence (P21917 whole entry): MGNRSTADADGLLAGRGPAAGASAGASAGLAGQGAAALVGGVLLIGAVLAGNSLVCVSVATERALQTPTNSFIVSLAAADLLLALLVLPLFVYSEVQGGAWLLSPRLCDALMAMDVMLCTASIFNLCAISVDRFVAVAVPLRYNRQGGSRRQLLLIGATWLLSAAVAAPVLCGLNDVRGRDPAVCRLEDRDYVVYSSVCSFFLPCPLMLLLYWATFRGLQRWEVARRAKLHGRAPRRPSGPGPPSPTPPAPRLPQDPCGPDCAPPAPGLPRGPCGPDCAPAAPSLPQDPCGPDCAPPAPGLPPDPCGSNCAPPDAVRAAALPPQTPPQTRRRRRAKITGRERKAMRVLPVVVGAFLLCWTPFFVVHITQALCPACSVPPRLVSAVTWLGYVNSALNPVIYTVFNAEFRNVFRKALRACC

[2] = DRUGMATRIX: Glutamate, AMPA radioligand binding (ligand: [3H] AMPA); type: cell membranes, Rattus norvegicus, Wistar, Cerebral cortex, Membrane; settings: Not Active = under 50% inhibition at 10 µM
B2 bradykinin receptor = molecular target: T2, B2 bradykinin receptor (Homo sapiens, UniProt P30411); type: cell membranes, Membrane; settings: chem-1; also: in other assays of this panel Not Active means under 50% inhibition at 10 µM
T2 sequence (P30411 whole entry): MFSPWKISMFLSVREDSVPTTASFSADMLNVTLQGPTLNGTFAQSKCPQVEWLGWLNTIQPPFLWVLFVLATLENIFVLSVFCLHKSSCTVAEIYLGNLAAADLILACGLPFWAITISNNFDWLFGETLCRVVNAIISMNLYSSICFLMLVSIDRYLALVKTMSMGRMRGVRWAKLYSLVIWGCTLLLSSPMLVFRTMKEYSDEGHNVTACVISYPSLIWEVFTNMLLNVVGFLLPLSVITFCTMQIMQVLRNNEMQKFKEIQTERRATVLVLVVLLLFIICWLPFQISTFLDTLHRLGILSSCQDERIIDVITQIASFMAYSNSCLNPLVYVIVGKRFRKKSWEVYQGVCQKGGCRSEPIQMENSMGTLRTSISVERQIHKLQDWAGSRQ

[3] = molecular target: T3, Cysteinyl leukotriene receptor 1 (Homo sapiens, UniProt Q9Y271); type: cell membranes, Membrane; settings: cho-k1; also: in other assays of this panel Not Active means under 50% inhibition at 10 µM
T3 sequence (Q9Y271 whole entry): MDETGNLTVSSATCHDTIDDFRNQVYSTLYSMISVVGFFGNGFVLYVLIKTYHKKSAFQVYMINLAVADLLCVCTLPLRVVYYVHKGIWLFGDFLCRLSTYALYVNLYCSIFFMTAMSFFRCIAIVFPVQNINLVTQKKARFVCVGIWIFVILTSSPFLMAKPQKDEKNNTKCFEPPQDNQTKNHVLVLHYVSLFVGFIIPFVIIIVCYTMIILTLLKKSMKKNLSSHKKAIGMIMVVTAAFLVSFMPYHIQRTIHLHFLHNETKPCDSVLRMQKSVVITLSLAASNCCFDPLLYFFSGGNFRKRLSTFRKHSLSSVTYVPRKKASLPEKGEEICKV

Cannabinoid receptor 1 = Cannabinoid receptor 1 (Homo sapiens, UniProt P21554); type: cell membranes, Chem-1, Membrane; also: in other assays of this panel Not Active means under 50% inhibition at 10 µM
Chain of Cannabinoid receptor 1 (P21554 whole entry): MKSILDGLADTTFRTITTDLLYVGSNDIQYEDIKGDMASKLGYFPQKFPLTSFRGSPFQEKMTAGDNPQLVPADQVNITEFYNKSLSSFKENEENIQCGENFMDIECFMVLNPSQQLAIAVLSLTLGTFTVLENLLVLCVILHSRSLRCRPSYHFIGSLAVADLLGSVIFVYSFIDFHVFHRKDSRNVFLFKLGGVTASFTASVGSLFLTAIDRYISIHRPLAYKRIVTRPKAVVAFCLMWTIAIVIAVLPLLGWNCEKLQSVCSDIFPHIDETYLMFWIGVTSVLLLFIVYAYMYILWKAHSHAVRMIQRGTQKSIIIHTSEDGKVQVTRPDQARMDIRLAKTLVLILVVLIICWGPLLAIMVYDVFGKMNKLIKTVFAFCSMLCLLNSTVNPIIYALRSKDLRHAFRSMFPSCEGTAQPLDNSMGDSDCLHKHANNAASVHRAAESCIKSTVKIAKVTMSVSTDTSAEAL

[4] = molecular target: T4, Type-2 angiotensin II receptor (Homo sapiens, UniProt P50052); type: cell-based; settings: cho-k1; also: in other assays of this panel Not Active means under 50% inhibition at 10 µM
T4 sequence (P50052 whole entry): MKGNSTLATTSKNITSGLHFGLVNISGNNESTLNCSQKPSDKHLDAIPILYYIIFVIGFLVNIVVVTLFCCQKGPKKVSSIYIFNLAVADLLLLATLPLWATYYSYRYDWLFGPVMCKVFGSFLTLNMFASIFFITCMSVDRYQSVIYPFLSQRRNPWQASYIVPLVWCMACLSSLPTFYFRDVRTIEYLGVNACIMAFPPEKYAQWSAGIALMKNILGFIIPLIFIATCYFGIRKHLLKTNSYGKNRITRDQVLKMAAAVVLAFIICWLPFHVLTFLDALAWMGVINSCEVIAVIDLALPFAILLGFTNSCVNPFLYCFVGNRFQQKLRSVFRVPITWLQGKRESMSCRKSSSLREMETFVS

SMILES	IC50 [1]	Ki [1]	IC50 (D(4) dopamine receptor; cho-k1)	IC50 [2]	Ki [2]	IC50 (B2 bradykinin receptor)	IC50 [3]	IC50 (Cannabinoid receptor 1; chem-1)	IC50 [4]	IC50 ([1]; read-out: IC50)	Ki ([1]; read-out: Ki)	IC50 (D(4) dopamine receptor; read-out: IC50)	Ki (D(4) dopamine receptor; read-out: Ki)	IC50 (Cannabinoid receptor 1; read-out: IC50)	Ki (Cannabinoid receptor 1; read-out: Ki)	Ki (Cannabinoid receptor 1; chem-1)
Cc1c(C)c2c(c(C)c1O)CCC(C)(CN1CCN(c3cc(N4CCCC4)nc(N4CCCC4)n3)CC1)O2 (centres undefined)	Not Active	Not Active	Not Active	Not Active	Not Active	Not Active	Not Active	Not Active	Not Active							
COc1ccc(CCN(C)CCCC(C#N)(c2ccc(OC)c(OC)c2)C(C)C)cc1OC (centres undefined)			Not Active	Not Active	Not Active	Not Active	Not Active	Not Active	Not Active	5.52 µM	3.68 µM					
CC(C)Cc1ccc([C@@H](C)C(=O)O)cc1 [(R)-IBUPROPHEN]	Not Active	Not Active	Not Active	Not Active	Not Active	Not Active	Not Active	Not Active	Not Active							
CN(C)CCOC(c1ccccc1)c1ccccc1 [DIPHENHYDRAMINE]			Not Active			Not Active	Not Active	Not Active	Not Active							
Clc1ccc(COC(Cn2ccnc2)c2ccc(Cl)cc2Cl)cc1 (centres undefined) [ECONAZOLE]						Not Active	Not Active		Not Active			9.33 µM	3.27 µM			
CCN(CC)CCOc1ccc(/C(=C(/Cl)c2ccccc2)c2ccccc2)cc1 [ENCLOMIPHENE]			Not Active			Not Active	Not Active	Not Active	Not Active							
Fc1ccc(C(c2ccc(F)cc2)N2CCN(C/C=C/c3ccccc3)CC2)cc1 [FLUNARIZINE]			Not Active			Not Active	Not Active		Not Active					3.03 µM	2.39 µM	
CNCCC(Oc1ccc(C(F)(F)F)cc1)c1ccccc1 (centres undefined) [FLUOXETINE]			Not Active			Not Active	Not Active	Not Active	Not Active							
Cc1ccc(NC(=O)c2ccc(CN3CCN(C)CC3)cc2)cc1Nc1nccc(-c2cccnc2)n1 [IMATINIB]			Not Active			Not Active	Not Active	Not Active	Not Active							
CC(C)Oc1ccc2c(=O)c(-c3ccccc3)coc2c1 [IPRIFLAVONE]	Not Active	Not Active	Not Active	Not Active	Not Active	Not Active	Not Active	Not Active	Not Active							
CC(C)NCC(O)c1ccc(O)c(O)c1 (centres undefined) [ISOPROTERENOL]	Not Active	Not Active	Not Active	Not Active	Not Active	Not Active	Not Active	Not Active	Not Active							
CNC1(c2ccccc2Cl)CCCCC1=O (centres undefined) [KETAMINE]	Not Active	Not Active	Not Active	Not Active	Not Active	Not Active	Not Active	Not Active	Not Active							
N#Cc1ccc(C(c2ccc(C#N)cc2)n2cncn2)cc1 [LETROZOLE]	Not Active	Not Active	Not Active	Not Active	Not Active	Not Active	Not Active	Not Active	Not Active							
CCN1CCC[C@H]1CNC(=O)c1cc(S(N)(=O)=O)ccc1OC [LEVOSULPIRIDE]	Not Active	Not Active	Not Active	Not Active	Not Active	Not Active	Not Active	Not Active	Not Active							
CCN(CC)CC(=O)Nc1c(C)cccc1C [LIDOCAINE]	Not Active	Not Active	Not Active	Not Active	Not Active	Not Active	Not Active	Not Active	Not Active							
O=C1Nc2ccc(Cl)cc2C(c2ccccc2Cl)=NC1O (centres undefined) [LORAZEPAM]	Not Active	Not Active	Not Active	Not Active	Not Active	Not Active	Not Active	Not Active	Not Active							
CO[C@@H]1[C@@H](OC)[C@H](C)[C@@](O)(CC(=O)O)O[C@H]1[C@H](C)[C@H]1O[C@@]2(CC[C@@](C)([C@H]3CC[C@@](C)([C@@H]4O[C@@H]([C@H]5O[C@](C)(O)[C@H](C)C[C@@H]5C)C[C@@H]4O[C@@H]4C[C@H](OC)[C@@H](OC)[C@H](C)O4)O3)O2)C[C@H](O)[C@H]1C [MADURAMICIN ACID]			Not Active	Not Active	Not Active	Not Active	Not Active	Not Active	Not Active	0.607 µM	0.405 µM					
COc1c2occc2cc2ccc(=O)oc12 [METHOXSALEN]	Not Active	Not Active	Not Active	Not Active	Not Active	Not Active	Not Active	Not Active	Not Active							
C[C@H]1C[C@@H]2[C@H]([C@@H](O)C[C@@]3(C)[C@H]2CC[C@]3(O)C(=O)CO)[C@@]2(C)C=CC(=O)C=C12 [METHYLPREDNISOLONE]	Not Active	Not Active	Not Active	Not Active	Not Active	Not Active	Not Active	Not Active	Not Active							
Cc1cccc(C)c1OCC(C)N (centres undefined) [MEXILETINE]	Not Active	Not Active	Not Active	Not Active	Not Active	Not Active	Not Active		Not Active							Not Active
Nc1cc(N2CCCCC2)nc(N)[n+]1[O-] [MINOXIDIL]	Not Active	Not Active	Not Active	Not Active	Not Active	Not Active	Not Active	Not Active	Not Active							
CO[C@H]1/C=C/O[C@@]2(C)Oc3c(C)c(O)c4c(O)c(c(/C=N/N5CCN(C6CCCC6)CC5)c(O)c4c3C2=O)NC(=O)/C(C)=C\C=C\[C@H](C)[C@H](O)[C@@H](C)[C@@H](O)[C@@H](C)[C@H](OC(C)=O)[C@@H]1C [RIFAPENTINE]	Not Active	Not Active	Not Active	Not Active	Not Active	Not Active	Not Active	Not Active	Not Active							
CCCCOc1cc(CC2CNC(=O)N2)ccc1OC (centres undefined) [RO-201724]	Not Active	Not Active	Not Active	Not Active	Not Active	Not Active	Not Active	Not Active	Not Active							
CN[C@H]1CC[C@@H](c2ccc(Cl)c(Cl)c2)c2ccccc21 [SERTRALINE]			Not Active			Not Active	Not Active	Not Active	Not Active							
